Experimental data as given in patent publication US7122545B2, “Imidazo-benzothiazoles” (Hoffmann-La Roche Inc., priority 2003, dated 2006).
Structures can show the parent of a compound that is named as a salt.

How the values were obtained:
[1] = target: T1, human adenosine A2A receptor (Homo sapiens, UniProt P29274); experiment: Human adenosine A2A receptor [3H]-SCH-58261 binding assay (SPA); conditions: recombinant receptor in CHO cell membranes; [3H]-SCH-58261 1 nM; Ki by Cheng-Prussoff; read-out: hA2 (pKi) (converted)
T1 construct: expressed in transfected cells; host or cells: CHO cells, semliki forest virus expression system; membrane preparation
Procedure: Human Adenosine A2A Receptor
(§1) The human adenosine A2A receptor was recombinantly expressed in Chinese hamster ovary (CHO) cells using the semliki forest virus expression system. Cells were harvested, washed twice by centrifugation, homogenized and again washed by centrifugation. The final washed membrane pellet was suspended in a Tris (50 mM) buffer containing 120 mM NaCl, 5 mM KCl, 2 mM CaCl2 and 10 mM MgCl2 (pH 7.4) (buffer A). The [^3H]-SCH-58261 (Dionisotti et al., 1997, Br J Pharmacol 121, 353; 1 nM) binding assay was carried out in 96-well plates in the presence of 2.5 μg of membrane protein, 0.5 mg of Ysi-poly-1-lysine SPA beads and 0.1 U adenosine deaminase in a final volume of 200 μl of buffer A. Non-specific binding was defined using xanthine amine congener (XAC; 2 μM). Compounds were tested at 10 concentrations from 10 μM-0.3 nM. All assays were conducted in duplic and repeated at least two times. Assay plates were incubated for hour at room temperature before centrifugation and then bound ligand determined using a Packard Topcount scintillation counter. IC50 values were calculated using a non-linear curve fitting program and Ki values calculated using the Cheng-Prussoff equation.

[2] = target: T2, human adenosine A1 receptor (Homo sapiens, UniProt P30542); experiment: Human adenosine A1 receptor [3H]-DPCPX binding assay (SPA); conditions: recombinant receptor in CHO cell membranes; [3H]-DPCPX 0.6 nM; Ki by Cheng-Prussoff; read-out: hA1 (pKi) (converted)
T2 construct: expressed in transfected cells; host or cells: CHO cells, semliki forest virus expression system; membrane preparation
T2 sequence (P30542 1-326): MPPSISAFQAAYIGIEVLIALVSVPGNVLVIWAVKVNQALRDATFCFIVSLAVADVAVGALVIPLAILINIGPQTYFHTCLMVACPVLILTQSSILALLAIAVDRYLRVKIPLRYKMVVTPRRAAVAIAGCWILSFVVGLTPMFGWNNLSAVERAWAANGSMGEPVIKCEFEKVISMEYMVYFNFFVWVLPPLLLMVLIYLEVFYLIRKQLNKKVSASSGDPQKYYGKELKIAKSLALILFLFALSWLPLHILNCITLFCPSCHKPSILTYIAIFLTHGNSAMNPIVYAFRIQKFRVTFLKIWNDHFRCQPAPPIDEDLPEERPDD
Procedure: Human Adenosine A1 receptor
as §1, with “human adenosine A1 receptor was” for “human adenosine A2A receptor was”, “A). The [^3H]-DPCPX (([propyl-^3H]8-cyclopentyl-1,3-dipropyxanthine); 0.6 nM) binding” for “A). The [^3H]-SCH-58261 (Dionisotti et al., 1997, Br J Pharmacol 121, 353; 1 nM) binding”, “from 10 μM–0.3 nM. All” for “from 10 μM-0.3 nM. All”, “conducted in duplicate and repeated” for “conducted in duplic and repeated”, “incubated for 1 hour at” for “incubated for hour at”

T1 sequence (P29274 whole entry): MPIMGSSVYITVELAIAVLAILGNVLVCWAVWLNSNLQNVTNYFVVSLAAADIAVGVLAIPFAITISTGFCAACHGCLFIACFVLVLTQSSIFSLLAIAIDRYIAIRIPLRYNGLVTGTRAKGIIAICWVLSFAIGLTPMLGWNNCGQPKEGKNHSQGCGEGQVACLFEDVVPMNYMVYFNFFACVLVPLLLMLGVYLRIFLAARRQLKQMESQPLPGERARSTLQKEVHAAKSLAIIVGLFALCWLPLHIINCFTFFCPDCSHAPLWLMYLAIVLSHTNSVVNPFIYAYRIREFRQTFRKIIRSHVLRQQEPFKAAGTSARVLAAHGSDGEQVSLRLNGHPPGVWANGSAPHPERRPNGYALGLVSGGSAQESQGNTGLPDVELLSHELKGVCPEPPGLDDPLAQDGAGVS

melting point | Ki [1] | Ki [2] | Compound
220 to 224 °C | – | – | COc1ccc(C2CCOCC2)c2sc(-c3ncc[nH]3)nc12 [Example 45, 2-(1H-Imidazol-2-yl)-4-methoxy-7-(tetrahydro-pyran-4-yl)-benzothiazole]
195 to 197 °C | – | – | COc1ccc(N2CCOCC2)c2sc(-c3nc4c([nH]3)CCN(C(C)=O)CC4)nc12 [Example 27, 1-[2-(4-Methoxy-7-morpholin-4-yl-benzothiazol-2-yl)-4,5,7,8-tetrahydro-1H-imidazo[4,5-d]azepin-6-yl]-ethanone]
213 to 215 °C | 50.1 nM | – | COc1ccc(N2CCOCC2)c2sc(-c3ncc(-c4sc5ccccc5c4C)[nH]3)nc12 [Example 20, 4-Methoxy-2-[5-(3-methyl-benzo[b]thiophen-2-yl)-1H-imidazol-2-yl]-7-morpholin-4-yl-benzothiazole]
194 to 196 °C | 1.26 nM | 1580 nM | COc1ccc(N2CCOCC2)c2sc(-c3nc4c([nH]3)CCN(C(=O)c3ccccc3C)CC4)nc12 [Example 28, [2-(4-Methoxy-7-morpholin-4-yl-benzothiazol-2-yl)-4,5,7,8-tetrahydro-1H-imidazo[4,5-d]azepin-6-yl]-o-tolyl-methanone]
– | 2.51 nM | 794 nM | COc1ccc(N2CCOCC2)c2sc(-c3nc4c([nH]3)CCCC4)nc12 [Example 22, 4-Methoxy-7-morpholin-4-yl-2-(4,5,6,7-tetrahydro-1H-benzoimidazol-2-yl)-benzothiazole]
299 to 302 °C | – | – | COc1ccc(N2CCOCC2)c2sc(-c3nc4c([nH]3)CCN(CC(N)=O)CC4)nc12 [Example 46, 2-[2-(4-Methoxy-7-morpholin-4-yl-benzothiazol-2-yl)-4,5,7,8-tetrahydro-1H-imidazo[4,5-d]azepin-6-yl]-acetamide]
155 to 157 °C | – | – | COc1ccc(N2CCOCC2)c2sc(-c3nc4c([nH]3)CCN(C(C)=O)C4)nc12 [Example 39, 1-[2-(4-Methoxy-7-morpholin-4-yl-benzothiazol-2-yl)-1,4,6,7-tetrahydro-imidazo[4,5-c]pyridin-5-yl]-ethanone]
203 to 204 °C | 1.26 nM | 398 nM | COc1ccc(N2CCOCC2)c2sc(-c3nc4c([nH]3)COCC4)nc12 [Example 23, 2-(4-Methoxy-7-morpholin-4-yl-benzothiazol-2-yl)-3,4,6,7-tetrahydro-pyrano[3,4-d]imidazole]
170 °C | – | – | COc1ccc(N2CCOCC2)c2sc(-c3nc(-c4ccsc4)c[nH]3)nc12 (as salt: ammonium) [Example 19, 4-Methoxy-7-morpholin-4-yl-2-(4-thiophen-3-yl-1H-imidazol-2-yl)-benzothiazole]
142 to 144 °C | – | – | COc1ccc(N2CCOCC2)c2sc(-c3nc4c([nH]3)CCN(C(=O)OC(C)(C)C)CC4)nc12 [Example 24, 2-(4-Methoxy-7-morpholin-4-yl-benzothiazol-2-yl)-4,5,7,8-tetrahydro-1H-imidazo[4,5-d]azepine-6-carboxylic acid tert-butyl ester]
– | 1.58 nM | 1260 nM | COc1ccc(N2CCOCC2)c2sc(-c3nc4c([nH]3)CCN(C(=O)C3CC3)CC4)nc12 [Example 30, Cyclopropyl-[2-(4-methoxy-7-morpholin-4-yl-benzothiazol-2-yl)-4,5,7,8-tetrahydro-1H-imidazo[4,5-d]azepin-6-yl]-methanone]
165 °C | – | – | COc1ccc(N2CCOCC2)c2sc(-c3nc4c([nH]3)CCCC4)nc12 (as salt: ammonium) [Example 22, 4-Methoxy-7-morpholin-4-yl-2-(4,5,6,7-tetrahydro-1H-benzoimidazol-2-yl)-benzothiazole]
205 to 207 °C | 1 nM | 631 nM | COc1ccc(N2CCOCC2)c2sc(-c3nc4c([nH]3)CCN(C(=O)c3ccc(F)cc3)CC4)nc12 [Example 26, (4-Fluoro-phenyl)-[2-(4-methoxy-7-morpholin-4-yl-benzothiazol-2-yl)-4,5,7,8-tetrahydro-1H-imidazo[4,5-d]azepin-6-yl]-methanone]
165 °C | – | – | COc1ccc(N2CCOCC2)c2sc(-c3nc(Cc4cccs4)c[nH]3)nc12 (as salt: ammonium) [Example 21, 4-Methoxy-7-morpholin-4-yl-2-(4-thiophen-2-ylmethyl-1H-imidazol-2-yl)-benzothiazole]

The next lines start with the compound.

Compound | melting point | Ki [1] | Ki [2]
COc1ccc(N2CCOCC2)c2sc(-c3nc4ccc(Cl)nc4[nH]3)nc12 [Example 6, 5-Chloro-2-(4-methoxy-7-morpholin-4-yl-benzothiazol-2-yl)-3H-imidazo[4,5-b]pyridine] | – | 3.16 nM | –
COc1ccc(N2CCOCC2)c2sc(-c3ncc(-c4csc5ccccc45)[nH]3)nc12 [Example 17, 2-(5-Benzo[b]thiophen-3-yl-1H-imidazol-2-yl)-4-methoxy-7-morpholin-4-yl-benzothiazole] | 161 to 162 °C | – | –
COc1ccc(N2CCOCC2)c2sc(-c3nc(-c4ccccc4)c[nH]3)nc12 [Example 15, 4-Methoxy-7-morpholin-4-yl-2-(4-phenyl-1H-imidazol-2-yl)-benzothiazole] | 226 to 233 °C | – | –
COc1ccc(N2CCOCC2)c2sc(-c3ncc[nH]3)nc12 [Example 1, 2-(1H-Imidazol-2-yl)-4-methoxy-7-morpholin-4-yl-benzothiazole] | – | 12.6 nM | 1000 nM
COc1ccc(N2CCOCC2)c2sc(-c3nc(-c4ccc5c(c4)OCCO5)c[nH]3)nc12 [Example 16, 2-[4-(2,3-Dihydro-benzo[1,4]dioxin-6-yl)-1H-imidazol-2-yl]-4-methoxy-7-morpholin-4-yl-benzothiazole] | 235 to 237 °C | – | –
COc1ccc(N2CCOCC2)c2sc(-c3nc(-c4cccs4)c[nH]3)nc12 (as salt: ammonium) [Example 18, 4-Methoxy-7-morpholin-4-yl-2-(4-thiophen-2-yl-1H-imidazol-2-yl)-benzothiazole] | 165 °C | – | –
COc1ccc(N2CCOCC2)c2sc(-c3nc4ccc(N(C)CC5CCOCC5)nc4[nH]3)nc12 [Example 14, [2-(4-Methoxy-7-morpholin-4-yl-benzothiazol-2-yl)-3H-imidazo[4,5-b]pyridin-5-yl]-methyl-(tetrahydro-pyran-4-ylmethyl)-amine] | – | 3.16 nM | 2510 nM
COc1ccc(N2CCOCC2)c2sc(-c3nc4ccccc4n3C)nc12 [Example 3, 4-Methoxy-2-(1-methyl-1H-benzoimidazol-2-yl)-7-morpholin-4-yl-benzothiazole] | 283 to 285 °C | 100 nM | –
COc1ccc(N2CCOCC2)c2sc(-c3nc4ccccc4[nH]3)nc12 [Example 2, 2-(1H-Benzoimidazol-2-yl)-4-methoxy-7-morpholin-4-yl-benzothiazole] | 284 to 286 °C | 0.501 nM | 158 nM
COc1ccc(N2CCOCC2)c2sc(-c3nc4ccc(N5CCOCC5)nc4[nH]3)nc12 [Example 9, 2-(4-Methoxy-7-morpholin-4-yl-benzothiazol-2-yl)-5-morpholin-4-yl-3H-imidazo[4,5-b]pyridine] | – | 2.51 nM | –
COc1ccc(N2CCOCC2)c2sc(-c3nc4c([nH]3)CCNCC4)nc12.Cl | 267 to 269 °C | – | –
COc1ccc(-c2ccccc2)c2sc(-c3ncc[nH]3)nc12 [Example 4, 2-(1H-Imidazol-2-yl)-4-methoxy-7-phenyl-benzothiazole] | 205 to 206 °C | 5.01 nM | 200 nM
COCn1c(-c2nc3c(OC)ccc(N4CCOCC4)c3s2)nc2ccc(Cl)nc21 [Example 7, 5-Chloro-3-methoxymethyl-2-(4-methoxy-7-morpholin-4-yl-benzothiazol-2-yl)-3H-imidazo[4,5-b]pyridine] | 167 to 170 °C | – | –
COc1ccc(N2CCOCC2)c2sc(-c3nc4c([nH]3)CCNC4)nc12.Cl | 268 to 271 °C | – | –
